The source of these data is patent publication US20040006048A1, “Combination of lecithin with ascorbic acid” (priority 2002, published 2004).

Common to all, as to format: in vivo
The test system of experiment [1] is rats in scopolamine induced memory deficit. The experiment is described as follows: Scopolamine induced memory deficit, water labyrinth learning test. The conditions noted are these: scopolamine model, combination 2 × (30 + 10) mg/kg/day p.o.
A further experiment deals with normal mice. The experiment is described as follows: Swimming test, physical performance of normal mice. The conditions noted are these: for Swimming time (sec) mean ± S.E.M.: p.o., Vit-C 2 × 10, Lecithin 2 × 30, combination 2 × (30 + 10) mg/kg/day. The text has this:
In the study ascorbic acid was ineffective, when it was given in itself (Table III.).

The test system of another experiment is normal rats. Description: Learning process of normal rats in water labyrinth. The conditions noted are these: for Number of errors Mean ± S.E.M. / Swimming time (sec) Mean ± SEM.: p.o., Vit.-C 2 × 10, Lecithin 2 × 30, combination 2 × (30 + 10) mg/kg/day. The text has this:
Ascorbic acid and lecithin were ineffective when they were given separately (Table I.).

[2] abbreviates: versus vehicle (control) and single components.

`CN1[C@@H]2C[C@@H](OC(=O)[C@H](CO)c3ccccc3)C[C@H]1[C@@H]1O[C@@H]12` [Scopolamine, scopolamine]: the “Number of errors Mean ± S.E.M.” value is 16.2 ± 0.83 in experiment [1] (session 1), 11.6 ± 0.52^++ in experiment [1] (session 2), 8.9 ± 0.41^++ in experiment [1] (session 3) and 6.3 ± 0.26^++ in experiment [1] (session 4). The “Swimming time (sec) mean ± S.E.M.” value in experiment [1] (session 1) was determined as 114.7 ± 9.45 s; in experiment [1] (session 2) it was 73.7 ± 6.22 s.
Regarding `O=C1O[C@H]([C@@H](O)CO)C(O)=C1O` [Vit.-C, ascorbic acid], the “Swimming time (sec) mean ± S.E.M.” value was determined as 76.2 ± 3.7 s in the experiment with normal mice (1. day starting values); 70.8 ± 3.8 s in the experiment with normal mice (2. day); 82.2 ± 3.4 s with normal mice (3. day); 88.8 ± 6.1 s in the experiment with normal mice (4. day); 90.0 ± 6.9 s with normal mice (5. day). For the same compound, in the experiment on normal mice (setting [2]), the “Effect on the physical performance of mice in swimming test (in words)” value was “ineffective”. Further, the “Number of errors Mean ± S.E.M.” value was 16.4 ± 0.45 in the experiment on normal rats (session 1), 11.6 ± 0.40 with normal rats (session 2), 6.2 ± 0.76 in the experiment with normal rats (session 3) and 3.9 ± 0.35 in the experiment with normal rats (session 4). Moreover, the “Swimming time (sec) Mean ± SEM.” value with normal rats (session 1) turned out to be 140.3 ± 9.54 s; with normal rats (session 2), 89.9 ± 6.22 s; with normal rats (session 3) it was 64.9 ± 7.29 s; with normal rats (session 4) it was 34.8 ± 2.79 s. Also, in the experiment on normal rats (setting [2]), the “Effect on the learning process of rats in water labyrinth (in words)” value is recorded as “ineffective”.
